Where two headings read alike, the source gives them in different places.
Legend:
[1] = Phase 1 multiple ascending dose study, plasma pharmacokinetics in healthy adult males; format: in vivo; details: male, human, oral, fasted
Description: An additional 6 subjects received placebo.
Accumulation were approximately 1.3 to 1.4 fold for C. and 1.4 to 1.5 fold for AUC0.24 (Table 12 and FIG. 8).

[2] = system: urine albumin-to-creatinine ratio (UACR); assay: Renal function safety pharmacology study in rats, single oral dose (urine albumin, creatinine, UACR); format: in vivo, Sprague Dawley Rats
Description: Cageside and detailed clinical observations, body weights, water consumption, blood clinical chemistry, urine chemistry, and urinalysis were performed. Osmolality, osmolality gap, urine volume, water intake rate, fluid balance, urinary excretion, renal creatinine clearance, renal clearance, free water clearance, and fractional electrolyte clearance were calculated and evaluated. All animals were euthanized on Day 2 after scheduled observations. Blood samples for clinical chemistry analysis were collected from all the animals at 24 hours post dose prior to each scheduled euthanasia. Urine samples for clinical chemistry and urinalysis were collected from all the animals at pre-dose (˜24 hours) and 0-6 hours and 6-24 hours post-dose.

[3] = Phase 2a study, safety and tolerability in gout patients; format: in vivo, human; details: 50 mg once daily
Description: Urine samples were collected for assessment of uric acid excretion. Laboratory safety tests, vital signs, and electrocardiograms were collected throughout the study.

[4] = 4-week toxicity study in Sprague-Dawley rats; format: in vivo
Description: On Day 29, surviving TS animals (all animals in study) were euthanized and subjected to a full gross necropsy, which included a macroscopic examination of the external surface of the body, all orifices, cranial cavity, external surface of the brain, the thoracic, abdominal and pelvic cavities and their viscera, cervical areas, carcass and genitalia. Organs were weighed as soon as possible from all main study animals at the scheduled necropsies. Tissues from Groups 1 and 5 animals at the terminal sacrifice, from animals found dead or moribund-sacrificed, and gross lesions from all animals, were embedded in paraffin, sectioned, stained with hematoxylin and eosin and examined microscopically by a board certified veterinary pathologist.

[5] = female rats, 5 mg/kg single oral, urine 0-6 h post dose
[6] = female rats, 5 mg/kg single oral, urine 6-24 h post dose
[7] = female rats, 15 mg/kg single oral, urine 0-6 h post dose
[8] = female rats, 15 mg/kg single oral, urine 6-24 h post dose
[9] = female rats, 50 mg/kg single oral, urine 0-6 h post dose
[10] = female rats, 50 mg/kg single oral, urine 6-24 h post dose
[11] = male rats, 10 mg/kg single oral, urine 0-6 h post dose
[12] = male rats, 10 mg/kg single oral, urine 6-24 h post dose
[13] = male rats, 30 mg/kg single oral, urine 0-6 h post dose
[14] = male rats, 30 mg/kg single oral, urine 6-24 h post dose
[15] = male rats, 100 mg/kg single oral, urine 0-6 h post dose
[16] = male rats, 100 mg/kg single oral, urine 6-24 h post dose
[17] = rats, oral gavage 2, 5, 15 and 50 mg/kg/day, 28 days

Work on `[2H]c1c([2H])c([2H])c2c(C(=O)c3cc(Br)c(O)c(Br)c3)c(C(C)O)oc2c1[2H]` (racemic) [Compound 1, (3,5-dibromo-4-hydroxyphenyl)(2-(1-hydroxyethyl)benzofuran-3-yl-4,5,6,7-d4)methanone] yielded a Cmax ([1]; 25 mg, 25 mg once daily, Day 1) of 1760 ng/mL, an AUC(0-t) ([1]; 25 mg, 25 mg once daily, Day 1, read-out: AUC0-24) of 21200 ng·h/mL and a Tmax ([1]; 25 mg, 25 mg once daily, Day 1, read-out: Tmax (median)) of 3.5 h. The Cmax ([1]; 25 mg, 25 mg once daily, Day 10) was 2480 ng/mL, the AUC(0-t) ([1]; 25 mg, 25 mg once daily, Day 10, read-out: AUC0-24) was 30800 ng·h/mL and the Tmax ([1]; 25 mg, 25 mg once daily, Day 10, read-out: Tmax (median)) was 2.25 h. The Cmax ([1]; 50 mg, 50 mg once daily, Day 1) was 3550 ng/mL, the AUC(0-t) ([1]; 50 mg, 50 mg once daily, Day 1, read-out: AUC0-24) was 39600 ng·h/mL and the Tmax ([1]; 50 mg, 50 mg once daily, Day 1, read-out: Tmax (median)) was 2 h. It also gave a Cmax ([1]; 50 mg, 50 mg once daily, Day 10) of 4590 ng/mL, an AUC(0-t) ([1]; 50 mg, 50 mg once daily, Day 10, read-out: AUC0-24) of 58200 ng·h/mL and a Tmax ([1]; 50 mg, 50 mg once daily, Day 10, read-out: Tmax (median)) of 2.5 h. It also gave a Cmax ([1]; 75 mg, 75 mg once daily, Day 1) of 5200 ng/mL, an AUC(0-t) ([1]; 75 mg, 75 mg once daily, Day 1, read-out: AUC0-24) of 55600 ng·h/mL and a Tmax ([1]; 75 mg, 75 mg once daily, Day 1, read-out: Tmax (median)) of 1.75 h. The Cmax ([1]; 75 mg, 75 mg once daily, Day 10) was 6770 ng/mL, the AUC(0-t) ([1]; 75 mg, 75 mg once daily, Day 10, read-out: AUC0-24) was 84700 ng·h/mL and the Tmax ([1]; 75 mg, 75 mg once daily, Day 10, read-out: Tmax (median)) was 1.5 h. The “% UACR change vs Ctrl” value [2, 5] was 140%, the “% UACR change vs baseline” value [2, 5] was 73% and the UACR [2, 5] was 102.7 mg/g. For the same molecule, the UALB [2, 5] was 33.71 mg/L, the UCRE [2, 5] was 0.328 g/L and the “% UACR change vs Ctrl” value [2, 6] was 19%. The “% UACR change vs baseline” value [2, 6] was 44%, the UACR [2, 6] was 40.3 mg/g and the UALB [2, 6] was 24.2 mg/L. For the same molecule, the UCRE [2, 6] was 0.600 g/L, the “% UACR change vs Ctrl” value [2, 7] was −53% and the “% UACR change vs baseline” value [2, 7] was −6%. It also gave a UACR [2, 7] of 17.5 mg/g, a UALB [2, 7] of 5.22 mg/L and a UCRE [2, 7] of 0.298 g/L. The “% UACR change vs Ctrl” value [2, 8] was −41%, the “% UACR change vs baseline” value [2, 8] was 9% and the UACR [2, 8] was 20.1 mg/g. The UALB [2, 8] was 11.93 mg/L, the UCRE [2, 8] was 0.593 g/L and the “% UACR change vs Ctrl” value [2, 9] was −38%. The “% UACR change vs baseline” value [2, 9] was −23%, the UACR [2, 9] was 23.4 mg/g and the UALB [2, 9] was 9.58 mg/L. The UCRE [2, 9] was 0.409 g/L, the “% UACR change vs Ctrl” value [2, 10] was −21% and the “% UACR change vs baseline” value [2, 10] was −7%. It also gave a UACR [2, 10] of 26.8 mg/g, a UALB [2, 10] of 21.15 mg/L and a UCRE [2, 10] of 0.790 g/L. For the same molecule, the “% UACR change vs Ctrl” value [2, 11] was −62%, the “% UACR change vs baseline” value [2, 11] was −62% and the UACR [2, 11] was 14.2 mg/g. The UALB [2, 11] was 6.22 mg/L, the UCRE [2, 11] was 0.438 g/L and the “% UACR change vs Ctrl” value [2, 12] was −32%. For the same molecule, the “% UACR change vs baseline” value [2, 12] was 23%, the UACR [2, 12] was 28.3 mg/g and the UALB [2, 12] was 14.79 mg/L. For the same molecule, the UCRE [2, 12] was 0.523 g/L, the “% UACR change vs Ctrl” value [2, 13] was −59% and the “% UACR change vs baseline” value [2, 13] was −46%. The UACR [2, 13] was 15.5 mg/g, the UALB [2, 13] was 8.73 mg/L and the UCRE [2, 13] was 0.563 g/L. For the same molecule, the “% UACR change vs Ctrl” value [2, 14] was −28%, the “% UACR change vs baseline” value [2, 14] was 31% and the UACR [2, 14] was 29.6 mg/g. The UALB [2, 14] was 12.38 mg/L, the UCRE [2, 14] was 0.418 g/L and the “% UACR change vs Ctrl” value [2, 15] was −63%. For the same molecule, the “% UACR change vs baseline” value [2, 15] was −38%, the UACR [2, 15] was 13.9 mg/g and the UALB [2, 15] was 9.25 mg/L. The UCRE [2, 15] was 0.666 g/L, the “% UACR change vs Ctrl” value [2, 16] was −32% and the “% UACR change vs baseline” value [2, 16] was 46%. For the same molecule, the UACR [2, 16] was 28.0 mg/g, the UALB [2, 16] was 15.18 mg/L and the UCRE [2, 16] was 0.542 g/L. For the same molecule, the “laboratory or ECG abnormalities” value [3] was “no clinically significant laboratory or ECG abnormalities”, the tolerability [3] was “well tolerated” and the NOAEL at 28 days ([4]; Sprague-Dawley, rat, in vivo, po) was 50 mg/kg. The “NOAEL, human equivalent” value ([4]; rat, in vivo) was 500 mg, the “dose with kidney weight increase, female” value ([4]; rats, 28 days oral) was 50 mg/kg/day and the “dose with liver weight increase, female” value ([4]; rats, 28 days oral) was ≥ 15 mg/kg/day. For the same molecule, the “dose with liver weight increase, male” value ([4]; rats, 28 days oral) was 50 mg/kg/day, the “findings at high or mid-high dose after 4 week recovery period” value ([4]; rats, 28 days oral then 4 week recovery) was “resolved” and the clinical signs [4, 17] was “No abnormal clinical signs”. For the same molecule, the “effect on food consumption, body weight” value [4, 17] was “no effect” and the mortality [4, 17] was “No mortality”.

From patent US20230218563A1, “METHODS FOR TREATING OR PREVENTING CHRONIC KIDNEY DISEASE” (Arthrosi Therapeutics, Inc., priority 2020, published 2023)
